Tests used:
Plasmodium falciparum = test: Antiplasmodial activity against Plasmodium falciparum W2 assessed as picogreen-DNA intercalation by microfluorimetric assay; format: functional, organism-based
[1] = Cytotoxicity against human NCI-H460 cells assessed as cell viability at 9 uM after 48 hrs by MTT assay; format: cell-based; conditions: read-out: Activity
[2] = Cytotoxicity against human NCI-H460 cells assessed as cell viability at 55 uM after 48 hrs by MTT assay; format: cell-based; conditions: read-out: Activity
[3] = molecular target: T1, NAD-dependent protein deacetylase sirtuin-2 (Homo sapiens) (UniProt Q8IXJ6); test: Inhibition of SIRT2 at 50 uM
T1 sequence (whole entry): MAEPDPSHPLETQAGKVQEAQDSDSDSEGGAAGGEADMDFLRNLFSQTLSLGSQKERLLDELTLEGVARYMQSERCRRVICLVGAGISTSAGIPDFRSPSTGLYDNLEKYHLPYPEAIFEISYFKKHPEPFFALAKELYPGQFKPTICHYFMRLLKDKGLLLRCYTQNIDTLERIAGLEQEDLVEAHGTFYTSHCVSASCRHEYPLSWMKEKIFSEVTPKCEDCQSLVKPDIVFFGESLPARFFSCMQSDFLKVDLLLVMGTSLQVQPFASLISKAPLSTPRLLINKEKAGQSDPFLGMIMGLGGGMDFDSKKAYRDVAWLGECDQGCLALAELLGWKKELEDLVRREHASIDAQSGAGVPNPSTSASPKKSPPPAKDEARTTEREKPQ

[4] = molecular target: T1, NAD-dependent protein deacetylase sirtuin-2 (Homo sapiens); test: Inhibition of SIRT2

Compound: CCCCCCCCC[C@@]1(CO)CC[C@@H](C)C(=O)O[C@@](CO)(CCCCCCCCC)CC[C@@H](C)C(=O)O1
- IC50 (Plasmodium falciparum): 19 µM
- viability at 48 h, 9 µM [1]: 110%
- viability at 48 h, 55 µM [2]: 10%
- inhibition [3]: 30%

Compound: CCCCCCCCCCC[C@]1(CO)CCCC(=O)O[C@](CO)(CCCCCCCCCCC)CCCC(=O)O1
- INH [4]: 0.176 µM

From ChEMBL document CHEMBL1157062, “Malyngolide dimer, a bioactive symmetric cyclodepside from the panamanian marine cyanobacterium Lyngbya majuscula” (J Nat Prod, 2010)
